A value given as a limit tells only on which side of the number the result lay.

By inhibition is commonly meant the drop in the measured response relative to a control, in per cent. Read a high inhibition as a strong effect. One may read the IC50 as the concentration that inhibits the measured activity by half.

The target of the experiment is T1, human 11β-HSD1 (Homo sapiens, UniProt P28845).
T1 construct: expressed in transfected cells; host or cells: CHO cells (microsomes)
Briefly: Inhibition of microsomal preparation of 11β-HSD1 (SPA, Biological Test Example 1). Format: biochemical. Conditions: for inhibition at 0.111 µM: 111 nM; for IC50: microsomes from CHO cells overexpressing human 11β-HSD1, read-out: IC50 Range; for inhibition at 0.1 µM: 100 nM. In outline:
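Microsomes from CHO cells overexpressing human 11β-HSD1 reduced [3H]cortisone (160 nM in substrate solution, with 2 mM NADPH, HEPES pH 7.4) for 90 min at rt after a 10 min compound preincubation. Compounds were run as 8-point half-log DMSO dilutions from 0.1 mM. 18β-glycyrrhetinic acid stopped the reaction, and anti-cortisol antibody SPA beads read [3H]cortisol.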

T1 sequence (P28845 whole entry): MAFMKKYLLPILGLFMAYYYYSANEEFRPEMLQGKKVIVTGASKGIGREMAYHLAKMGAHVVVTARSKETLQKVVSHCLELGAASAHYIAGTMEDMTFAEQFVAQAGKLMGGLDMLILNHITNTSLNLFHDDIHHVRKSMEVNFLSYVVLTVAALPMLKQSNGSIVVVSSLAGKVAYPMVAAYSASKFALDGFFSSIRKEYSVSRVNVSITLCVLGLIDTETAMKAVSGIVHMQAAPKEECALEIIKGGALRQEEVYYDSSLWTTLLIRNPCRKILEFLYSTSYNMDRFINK

Take `O=C(O)CC1CC2(CCN(C(=O)/C=C/c3ccccc3Cl)CC2)c2c(Cl)cccc21` (racemic) [EXAMPLE 8, (±)-(E)-2-(7-chloro-1′-(3-(2-chlorophenyl)acryloyl)-2,3-dihydrospiro[indene-1,4′-piperidine]-3-yl)acetic acid]: the inhibition at 0.111 µM worked out at 85.5% and the IC50 was under 100 nM.

On to `O=C1CC2(CCN(C(=O)NCc3ccccc3OC(F)(F)F)CC2)c2c(Br)cccc21` [EXAMPLE 99, 7-bromo-3-oxo-N-(2-(trifluoromethoxy)benzyl)-2,3-dihydrospiro[indene-1,4′-piperidine]-1′-carboxamide], for which the inhibition at 0.111 µM is 75.6% and the 50% inhibitory concentration (IC50) is under 100 nM.

For `CCOC(=O)CC1CC2(CCN(C(=O)N(C)Cc3ccccc3F)CC2)c2c(Br)cccc21` (stereo not drawn) [EXAMPLE 103, Ethyl 2-(7-bromo-1′-((2-fluorobenzyl)(methyl)carbamoyl)-2,3-dihydrospiro[indene-1,4′-piperidine]-3-yl)acetate], the inhibition at 0.111 µM was 79.4% and the IC50 was under 100 nM.

With `Cc1ccccc1CNC(=O)N1CCC2(CC1)CC(CC(=O)N1CCNCC1)c1cccc(Br)c12` (stereo not drawn) [EXAMPLE 90, 7-bromo-N-(2-methylbenzyl)-3-(2-oxo-2-(piperazin-1-yl)ethyl)-2,3-dihydrospiro[indene-1,4′-piperidine]-1′-carboxamide], the inhibition at 0.111 µM was determined as 52.4% and the IC50 lay in the range of 100 to 1000 nM.

For the compound `CN(Cc1ccccc1F)C(=O)N1CCC2(CC1)CC(CC(=O)O)c1cccc(Br)c12` (stereo not drawn) [EXAMPLE 104, 2-(7-bromo-1′((2-fluorobenzyl)(methyl)carbamoyl)-2,3-dihydrospiro[indene-1,4′-piperidine]-3-yl)acetic acid], the inhibition at 0.111 µM was determined as 88.7% and the IC50 is under 100 nM.

As to `CS(=O)(=O)c1ccccc1CNC(=O)N1CCC2(CC1)CC(CC(=O)O)c1cccc(Br)c12` (stereo not drawn) [EXAMPLE 97, 2-(7-bromo-1′-(2-(methylsulfonyl)benzylcarbamoyl)-2,3-dihydrospiro[indene-1,4′-piperidine]-3-yl)acetic acid], the inhibition at 0.111 µM amounted to 5.6% and the IC50 fell in the range of 100 to 1000 nM.

As to `CC(C)(C)OC(=O)N1Cc2ccccc2C2(CCN(C(=O)/C=C/c3ccccc3C(F)(F)F)CC2)C1` [EXAMPLE 20, (E)-tert-butyl 1′-(3-(2-(trifluoromethyl)phenyl)acryloyl)-1H-spiro[isoquinoline-4,4′-piperidine]-2(3H)-carboxylate], the inhibition at 0.111 µM worked out at 29% and the IC50 is under 100 nM.

On to `CCOC(=O)CC1CC2(CCN(C(=O)NCc3c(C)cccc3Cl)CC2)c2c(Br)cccc21` (stereo not drawn) [EXAMPLE 89, Ethyl 2-(7-bromo-1′-(2-chloro-6-methylbenzylcarbamoyl)-2,3-dihydrospiro[indene-1,4′-piperidine]-3-yl)acetate], for which 0.111 µM produced 61.2% inhibition and the IC50 is under 100 nM.

`COc1ccc2c(c1)CCNC21CCN(C(=O)Cc2ccccc2C(F)(F)F)CC1` [EXAMPLE 44, 1-(6-methoxy-3,4-dihydro-2H-spiro[isoquinoline-1,4′-piperidine]-1′-yl)-2-(2-(trifluoromethyl)phenyl)ethanone]: the inhibition at 0.111 µM is 69.9% and the IC50 is under 100 nM.

In the case of `Cc1ccccc1CNC(=O)N1CCC2(CC1)CC(CC(=O)N1CCN(C(=O)OC(C)(C)C)CC1)c1cccc(Br)c12` (stereo not drawn) [EXAMPLE 88, tert-butyl 4-(2-(7-bromo-1′-(2-methylbenzylcarbamoyl)-2,3-dihydrospiro[indene-1,4′-piperidine]-3-yl)acetyl)piperazine-1-carboxylate], the inhibition at 0.111 µM is 66.2% and the half-inhibitory concentration (IC50) is under 100 nM.

For `CCOC(=O)CC1CC2(CCN(C(=O)N(C)Cc3ccccc3C(F)(F)F)CC2)c2c(Br)cccc21` (stereo not drawn) [EXAMPLE 101, Ethyl 2-(7-bromo-1′-(methyl(2-(trifluoromethyl)benzyl)carbamoyl)-2,3-dihydrospiro[indene-1,4′-piperidine]-3-yl)acetate], the inhibition at 0.111 µM was determined as 42.6% and the IC50 is 100 to 1000 nM.

In the case of `O=C(O)CC1CC2(CCN(C(=O)/C=C/c3ccccc3C(F)(F)F)CC2)c2c(Cl)cccc21` (racemic) [EXAMPLE 3, (±)-(E)-2-(7-chloro-1′-(3-(2-(trifluoromethyl)phenyl)acryloyl)-2,3-dihydrospiro[indene-1,4′-piperidine]-3-yl)acetic acid], testing at 0.1 µM gave an inhibition of 96.3% and the IC50 is under 100 nM.

For `O=C1NC2(CCN(C(=O)Cc3ccccc3C(F)(F)F)CC2)c2c(Cl)cc(Cl)cc21` [EXAMPLE 50, 5,7-dichloro-1′-(2-(2-(trifluoromethyl)phenyl)acetyl)spiro[isoindoline-1,4′-piperidin]-3-one], the inhibition at 0.111 µM came to 68.9% and the IC50 fell in the range of 100 to 1000 nM.

For `CN1C(=O)c2ccccc2C12CCN(C(=O)CCc1ccccc1C(F)(F)F)CC2` [EXAMPLE 55, 2-methyl-1′-(3-(2-(trifluoromethyl)phenyl)propanoyl)spiro[isoindoline-1,4′-piperidin]-3-one], testing at 0.111 µM gave an inhibition of 76.5% and the IC50 was under 100 nM.

As for `O=C(/C=C/c1ccccc1C(F)(F)F)N1CCC2(CC1)CNCc1ccccc12` [EXAMPLE 21, (E)-1-(2,3-dihydro-1H-spiro[isoquinoline-4,4′-piperidine]-1′-yl)-3-(2-(trifluoromethyl)phenyl)prop-2-en-1-one], the inhibition at 0.111 µM was found to be 87.4% and the half-maximal inhibitory concentration (IC50) is under 100 nM.

As for `O=C1NC2(CCN(C(=O)Cc3ccccc3C(F)(F)F)CC2)c2c(Cl)cccc21` [EXAMPLE 45, 7-chloro-1′-(2-(2-(trifluoromethyl)phenyl)acetyl)spiro[isoindoline-1,4′-piperidin]-3-one], the inhibition at 0.111 µM amounted to 43.2% and the IC50 was in the range of 100 to 1000 nM.

Turning to `O=C(O)CC1CC2(CCN(C(=O)/C=C/c3cc(F)ccc3C(F)(F)F)CC2)c2c(Cl)cccc21` (racemic) [EXAMPLE 5, (±)-(E)-2-(7-chloro-1′-(3-(5-fluoro-2-(trifluoromethyl)phenyl)acryloyl)-2,3-dihydrospiro[indene-1,4′-piperidine]-3-yl)acetic acid], the inhibition at 0.111 µM amounted to 83.3% and the IC50 is under 100 nM.

Take `O=C(/C=C/c1ccccc1C(F)(F)F)N1CCC2(CC1)C(=O)Nc1ccc(F)cc12` [EXAMPLE 41, (E)-5-fluoro-1′-(3-(2-(trifluoromethyl)phenyl)acryloyl)spiro[indoline-3,4′-piperidin]-2-one]: 0.1 µM produced 91.2% inhibition and the IC50 was under 100 nM.

Consider `O=C1NC2(CCN(C(=O)CCc3ccccc3C(F)(F)F)CC2)c2c(Cl)cc(Cl)cc21` [EXAMPLE 72, 5,7-dichloro-1′-(3-(2-(trifluoromethyl)phenyl)propanoyl)spiro[isoindoline-1,4′-piperidin]-3-one], for which the inhibition at 0.111 µM was found to be 82.4% and the IC50 was under 100 nM.

For the compound `COc1ccc2c(c1)CCNC21CCN(C(=O)CCc2ccccc2C)CC1` [EXAMPLE 63, 1-(6-methoxy-3,4-dihydro-2H-spiro[isoquinoline-1,4′-piperidine]-1′-yl)-3-o-tolylpropane-1-one], the inhibition at 0.111 µM is 22.5% and the IC50 was in the range of 100 to 1000 nM.

In the case of `O=C(O)CC1CC2(CCN(C(=O)Cc3ccccc3C(F)(F)F)CC2)c2c(Cl)cccc21` (stereo not drawn) [EXAMPLE 51, 2-(7-chloro-1′(2-(2-(trifluoromethyl)phenyl)acetyl)-2,3-dihydrospiro[indene-1,4′-piperidine]-3-yl)acetic acid], the inhibition at 0.1 µM is 76.8% and the concentration for half-maximal inhibition (IC50) is under 100 nM.

The record behind these values is patent US8383629B2, “Inhibitors of 11β-hydroxysteroid dehydrogenase type 1” (Vitae Pharmaceuticals, Inc., priority 2008, dated 2013).
